According to ChEMBL document CHEMBL1201862, “PubChem BioAssay data set” (2004):
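All cell lines were grown in 96-well plates and treated with compound for 48 hours. GI50: concentration for 50% inhibition of growth.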 The source made the active and inactive calls. No stated cut-off is given here; in the data, active = GI50 up to about 1.1 µM and inactive = higher.

What was measured:
Experiment in all cases: NCI anticancer screen, dose series, 48 h
[1] = test system: SF-268
[2] = test system: Hs-578T
[3] = test system: UO-31
[4] = test system: 786-0
[5] = test system: DU-145
[6] = test system: Malme-3M
[7] = test system: RPMI-8226
[8] = test system: EKVX
[9] = test system: KM12
[10] = test system: OVCAR-5
[11] = test system: A498
[12] = test system: TK-10
[13] = test system: SNB-75
[14] = test system: SK-MEL-2
[15] = test system: COLO 205
[16] = test system: A549
[17] = test system: NCI-H226
[18] = test system: HOP-62
[19] = test system: HT-29
[20] = test system: OVCAR-8

Measured: GI50

OCCOc1ccccc2cccc1-2
inactive: [1] > 100 µM | [2] > 100 µM | [3] > 100 µM | [4] > 100 µM | [5] > 100 µM | [6] > 100 µM | [7] 61.8 µM | [8] > 100 µM | [9] > 100 µM | [10] > 100 µM | [11] > 100 µM | [12] > 100 µM | [13] > 100 µM | [14] > 100 µM | [15] > 100 µM | [16] > 100 µM | [17] > 100 µM | [18] > 100 µM | [19] > 100 µM | [20] > 100 µM

O=C1C2CCN(CC2)C1CN1CCOCC1 (stereo not given)
inactive: [1] 13.7 µM | [2] 29 µM | [3] 3.84 µM | [4] 1.93 µM | [5] 6.47 µM | [6] 1.8 µM | [7] 2.13 µM | [8] 17.8 µM | [9] 16.6 µM | [10] 5.53 µM | [11] 16.8 µM | [12] 6.82 µM | [13] 17 µM | [14] 17.5 µM | [15] 1.79 µM | [16] 19.7 µM | [17] 13.6 µM | [18] 18.5 µM | [19] 7.73 µM | [20] 5.02 µM

O=[N+]([O-])c1cc2c(c([N+](=O)[O-])c1)NCc1ccccc1O2
inactive: [1] > 100 µM | [2] 70.8 µM | [3] > 100 µM | [4] 43.4 µM | [5] > 100 µM | [6] > 100 µM | [7] > 100 µM | [8] > 100 µM | [9] > 100 µM | [10] > 100 µM | [11] > 100 µM | [12] > 100 µM | [13] 12.9 µM | [14] 76.6 µM | [15] > 100 µM | [16] > 100 µM | [17] > 100 µM | [18] 30.8 µM | [19] > 100 µM | [20] 71.1 µM

O=C1Nc2ccc([N+](=O)[O-])cc2/C1=N/NC(=S)Nc1ccc([N+](=O)[O-])cc1
inactive: [1] 32.6 µM | [2] 51.9 µM | [3] 18 µM | [4] 16.9 µM | [5] 21.5 µM | [6] 33.3 µM | [7] 34.9 µM | [8] 26.2 µM | [9] 18.6 µM | [10] 28.7 µM | [11] 18.2 µM | [12] 24.7 µM | [13] 21.8 µM | [14] 18.5 µM | [15] 36 µM | [16] 21.1 µM | [17] 27.9 µM | [18] 22.6 µM | [19] 26.7 µM | [20] 31.5 µM

CC1(C)CCC(C)(C)c2cc(NC(=O)c3ccc(C(=O)O)cc3)ccc21 [TAMIBAROTENE]
inactive: [1] 34.8 µM | [2] 24.5 µM | [3] 17.2 µM | [4] 31.3 µM | [5] 23.8 µM | [6] 17.9 µM | [7] 20.4 µM | [8] 37.9 µM | [9] 20.7 µM | [10] > 51.6 µM | [11] 23.7 µM | [12] 25.1 µM | [13] > 100 µM | [14] 25.6 µM | [15] 23.9 µM | [16] 27 µM | [17] 22.2 µM | [18] 23.6 µM | [19] 25.8 µM | [20] 41.5 µM
